The source of these data is patent EP0903346A1, “SYDNONE IMINE DERIVATIVES” (Chugai Seiyaku Kabushiki Kaisha, priority 1995, dated 1997).

One assay relates to rat A-V shunt model. Description: Effect on blood coagulability in rat A-V shunt model. Format: in vivo. The note with it: 10 mg/kg p.o.; from 75 minutes to 2 hours after administration; mean ± S.E. (n = 6). Here is the method: Rat A-V shunts models were prepared by reference to the method of Umezu et al. (Thrombos Haemostas. 1978:39:74 - 83). Male SD rats were anesthetized with sodium pentobarbital (50 mg/kg, i.p.) and fixed in the supine position. A thick polyethylene tube (6 cm; Hibiki No. 7, Kunii Co.) containing a silk suture thread was connected at both ends to another thin polyethylene tube (10 cm, Hibiki No. 4, Kunii Co.) and then inserted into the left common carotid artery and the right internal jugular vein of the rat so as to form an external blood circulation system (A-V Shunt). The blood was circulated within the shunt system for 15 minutes and then the blood coagulates adhering to the silk suture thread in the thick tube was weighed. After repeating this operation thrice, the total weight was determined and the activity of each test compound was evaluated based thereon.
In this experiment, the anti-aggregation effects achieved from 75 minutes to 2 hours after the peroral administration were examined in a vehicle group (0.3% carboxymethyl cellulose, hereinafter referred to simply as CMC; n = 6), a group of the compound of Example 2 (10 mg/kg; n = 6) and a group of FK-409 (10 mg/kg; n = 6) which had been reported as being capable of inhibiting the formation of blood coagulates (European Journal of Pharmacology, 1995:272:39 - 43). Table F summarizes the results. Table F […]

The test system of assay [1] is platelet rich plasma (PRP). The assay can be described thus: Inhibitory effect on platelet aggregation in rabbit. Format: cell-based. The note with it: Oryctolagus cuniculus, aggregation agent arachidonic acid, pre-incubated for 3 minutes, invention compound n = 1 - 3, aspirin n = 7, read-out: Rabbit antiplatelet aggregation effect IC50. The protocol:
Male JW/CSK rabbits weighing 2.6 to 3.1 kg were anesthetized with thiopental (20 mg/kg). Then the blood of each animal was collected from the left carotid artery into a container containing a 3.8% solution of citric acid (9 : 1 v/v). The collected blood was immediately centrifuged at room temperature at 1,300 rpm (230 G) for 10 minutes to give a platelet rich plasma (PRP). Further, a required amount of the blood was centrifuged at 3,000 rpm (1,300 G) for 15 minutes to give a platelet poor plasma (PPP). The PRP to be used in the platelet aggregation test was diluted with PPP to adjust the platelet count to 3 x 10^8. The aggregability was measured by using a platelet aggregation measuring device (TE-500, ERMA) with the use of arachidonic acid ([…]) as an aggregation agent. Each test compound was mixed with PRP and pre-incubated for 3 minutes. Next, the aggregation agent was added thereto and the aggregability was measured for 5 minutes. Thus, the activity of the test compound was evaluated by determining the 50% inhibitory concentration (IC50; µM) thereof to the maximum aggregation induced by the arachidonic acid. As the test compounds, the compounds of the present invention obtained in the above Examples were employed. As a control drug, use was made of aspirin which has been widely known as a platelet aggregation inhinitor. Table E summarizes the results. Table E

A further assay has as its system anesthetized rat. Description: Blood pressure-lowering effect in anesthetized rat. Format: in vivo. The note with it: duodenal administration; for Blood pressure-lowering effect ED30: dose causing a decrease in the blood pressure by 30%; for Blood pressure-lowering effect Half duration: half duration at ED30 (recovery to 50% of the maximum decrease in blood pressure). Here is the method: Male Sprague Dawley rats weighing 280 to 450 g were anesthetized with sodium pentobarbital (50 mg/kg, i.p.) and fixed in the supine position. A canula was inserted into the trachea of each animal. Then the blood pressure of the animal was measured (AP-621G, Nippon Kohden Corp.) through a polyethylene tube (PE50) inserted into the right femoral artery via a pressure transducer (Life Kit DTS, DX-300, Nippon Kohden Corp.) and the heart rate was determined from the pulse wave (AT-610G, Nippon Kohden Corp.). A canula (PE10) for injecting the maintenance anesthetic drug (sodium pentobarbital 20 mg/kg/h) was inserted into the right femoral vein. The abdominal region was medianly sectioned and a canula (PE50 connected to a injection needle 23G) for duodenal drug administration was inserted thereinto and fixed with Aronalpha for surgical use. After 60-90 minutes of recovery period, the drug was administered into duodenum. After administering the drug, the blood pressure was measured until the average blood pressure returned to the level before the administration.
As the indication of the blood pressure-lowering effect of each drug, the dose causing a decrease in the blood pressure by 30%, based on the level before the administration, was calculated from the dose-response curve and employed as the 30% effective dose (ED30). Moreover, the time required for the recovery to the level corresponding to 50% of the maximum decrease in the blood pressure (half duration) was measured at each dose. Then the half duration at the above-mentioned ED30 was calculated and employed as the indication of the lasting time of the blood pressure-lowering effect (half duration at ED30).
As the test compounds, use was made of the compounds of the present invention obtained in the above Examples. Table C summarizes the results. Table C

Assay [2] concerns rat ischemia-reperfusion model. The assay can be described thus: Myocardial necrosis inhibitory effect in rat ischemia-reperfusion model. Also on record: LDH / CK: unit not given here. Type of assay: in vivo. The note with it: mean ± standard error; for NA/RA: necrosis area/risk area; for CK: serum creatine kinase activity after reflow; for LDH: serum lactate dehydrogenase activity after reflow. The protocol: Male Sprague Dawley rats weighing 270 to 410 g were anesthetized with sodium pentobarbital (50 mg/kg, i.p.) and fixed in the supine position. A canula was inserted into the trachea of each animal. Then the blood pressure of the animal was measured (AP-621G, Nippon Kohden Corp.) through a polyethylene tube (PE50, Becton Dickinson) inserted into the right femoral artery via a pressure transducer (Life Kit DTS, DX-300, Nippon Kohden Corp.) and the heart rate was determined from the pulse wave (AT-610G, Nippon Kohden Corp.). Two canulae (PE10 and PE50, Becton Dickinson) for injecting the maintenance anesthetic drug (sodium pentobarbital 20 mg/kg/h) and a coloring matter respectively were inserted into the right jugular vein. The left jugular vein was exposed for blood collection. The chest was opened by vertically sectioning the chest region from the third to fifth left ribs about 10 mm apart from the median line under artificial respiration with room air (Harvard respirator, model 683, rate : 60 strokes/min. tidal volume : 10 ml/kg body weight). Then the operative field was enlarged with a wound retractor and the heart sac was peeled off to thereby expose the heart. By using a curved round needle with thread for vascular tract (8mm, 6-0 black blaid silk, Matsuda Medical Industry), a thread of 4 to 5 mm in length was put in the left ventricle in the depth of 2 mm for ligating the coronary artery. After the completion of the operation, the animal was allowed to stand as such for 20 minutes or longer. After confirming that the blood pressure and the heart rate had been stabilized, the experiment was initiated.
In this experiment, use was made of eight groups of rats including: 1) a physiological saline (i.e., the solvent for SIN-1) group; 2) an SIN-1 (3 µg/kg/min) group; 3) another SIN-1 (10 µg/kg/min) group; 4) 1% DMSO-containing physiological saline (adjusted to pH 5 with hydrochloric acid, i.e., the solvent for the compounds of Examples 1 and 2) group; 5) a group of the compound of Example 1 (10 µg/kg/min); 6) another group of the compound of Example 1 (30 µg/kg/min); 7) a group of the compound of Example 2 (3 µg/kg/min); and 8) another group of the compound of Example 2 (10 µg/kg/min). Each drug was intravenously administered continuously for 75 minutes (from 15 minutes before the ligation of the coronary artery to the completion of the reflow) at a rate of 0.95 ml/h. Fifteen minutes after the initiation of the drug administration, the coronary artery was ligated and maintained for 30 minutes. The coronary artery was ligated by the snare method with the use of a polyethylene tube (PE160, Becton Dickinson) and a vascular clamp (C-17 grooved, Natsume). After 30-minutes reflow, the risk area (RA) and the necrosis area (NA) were measured.
The risk area and the necrosis area formed by ligating the coronary artery were measured by the double staining method with Evans blue and triphenyltetrazolium chloride (TTC) in the following manner. To clarify the risk area, the coronary artery was ligated again after the completion of the reflow. Subsequently, 1 ml of 5% Evans blue (Sigma) and a 1 M solution of KCl were successively injected into the jugular vein until the heart arrest. Thus, the non-risk area was stained dark blue. After the heart arrest, the heart was quickly taken out and washed with physiological saline. Then the left ventricle was separated and cut into circular slices of 3 mm in width with a trimming blade (Feather). To decide the necrosis area, these slices were incubated in a 0.1 M phosphate buffer (81 mM Na2HPO4: 19 mM NaH2PO4, pH 7.4) containing 1% TTC at 37°C for 5 minutes. Thus, living cells were exclusively stained red with TTC while the necrosis area was not stained. After staining with TTC, each wet slice was weighed, fixed with 20% formalin and then photographed while allowing to stand in physiological saline. […]

For another assay, the system named is isolated rat aorta. The assay can be described thus: Test with the use of isolated rat aorta (relaxation of potassium chloride contraction). The following applies: read-out: Rat aorta IC50. Here is the method: The thoracic aorta was taken out from male Sprague Dawley rats weighing 450 to 600 g and cut into circular samples of 2 mm in width. […] The contraction reactions of the samples were isometrically recorded with FD pick-up. After 1 to 1.5 hours of equilibration, 30 mM potassium chloride was added to contract the tissue. […] As the test compounds, the invention compounds obtained in the above Examples were employed.

Where [3] appears, read: 10 µg/kg/min intravenously for 75 minutes.
[4] abbreviates: 30 µg/kg/min intravenously for 75 minutes.
[5] abbreviates: 3 µg/kg/min intravenously for 75 minutes.

Read-outs that look alike come from different tables or passages of the source.

Consider `CC/C(=C\C(=N/O)C(N)=O)C(C)[N+](=O)[O-]` (stereo not shown) [FK409], for which the “Blood coagulability in rat A-V shunt model p.o. administration; wt. (mg) of coagulates” value with rat A-V shunt model is 89.17 ± 8.43 mg.

With `CC(=O)SCC(=O)[N-]c1c[n+](N2CCN(C(C)C)CC2)no1` [Example 86, N-(Acetylthioacetyl)-3-(4-isopropylpiperazin-1-yl)sydnonimine], the half-maximal inhibitory concentration (IC50) (commonly the midpoint of a concentration-inhibition curve) in assay [1] worked out at 1.3 µM.

Consider `CC(=O)Oc1ccccc1C(=O)O` [aspirin, reference compound], for which the IC50 in assay [1] was 27.5 µM.

On to `CC(C)N1CCN([n+]2cc([N-]C(=O)CSC(=O)c3ccccc3)on2)CC1` [Example 88, N-(Benzoylthioacetyl)-3-(4-isopropylpiperazin-1-yl)sydnonimine], for which, in assay [1], the IC50 was 1.1 µM.

`CN1CCN([n+]2cc([N-]C(=O)CCSC(=O)c3ccc(F)cc3)on2)CC1` [Example 135, N-(3-(4-Fluorobenzoylthio)propionyl)-3-(4-methylpiperazin-1-yl)sydnonimine]: the IC50 in assay [1] was found to be 12.9 µM.

On to `CCN1CCN([n+]2cc([N-]C(=O)CSC(=O)C3(C)CCc4c(C)c(O)c(C)c(C)c4O3)on2)CC1` (stereo not shown) [Example 192, N-((6-Hydroxy-2,5,7,8-tetramethylchroman-2-carbonylthio)acetyl)-3-(4-ethylpiperazin-1-yl)sydnonimine], for which, in assay [1], the concentration for half-maximal inhibition (IC50) was 3.9 µM.

Take `CN1CCN([n+]2cc([N-]C(=O)CSc3cc(C(C)(C)C)c(O)c(C(C)(C)C)c3)on2)CC1` [Example 1, N-((3,5-Di-t-butyl-4-hydroxyphenylthio)acetyl)-3-(4-methylpiperazin-1-yl)sydnonimine]: in the assay with anesthetized rat, the “Blood pressure-lowering effect ED30” value came out at 5.5 mg/kg and the “Blood pressure-lowering effect Half duration” value was found to be 151 min. In assay [2] (setting [3]), this molecule returned an NA/RA of 33.4±6.1%, a CK of 3237±803 and an LDH of 1538±254. In assay [2] (setting [4]), this molecule yielded an NA/RA of 22.3±6.1 p<0.01 vs. 4%, a CK of 2772±496 and an LDH of 1339±343. Besides, in the assay on isolated rat aorta, the IC50 was 0.65 µM.

Turning to `CN1CCN([n+]2cc([N-]C(=O)CSC(=O)c3ccccc3)on2)CC1` [Example 3, N-((Benzoylthio)acetyl)-3-(4-methylpiperazin-1-yl)sydnonimine], the IC50 in assay [1] was 2.7 µM.

Consider `Cl.N=c1c[n+](N2CCOCC2)[n-]o1` [SIN-1, 3-morpholinosydnonimine hydrochloride, reference compound], for which, in the assay on anesthetized rat, the “Blood pressure-lowering effect ED30” value was determined as 1.0 mg/kg and the “Blood pressure-lowering effect Half duration” value is listed as 75 min. Further, in assay [2] (setting [5]), the NA/RA is 18.5±4.3%, the CK was 3138±207 and the LDH came to 1082±60. In assay [2] (setting [3]), this molecule returned an NA/RA of 19.3±5.2%, a CK of 2853±507 and an LDH of 1196±166. Also, the IC50 in the assay with isolated rat aorta (relaxation of continuous contraction due to 30 mM potassium chloride, thoracic aorta of male Sprague Dawley rats) is 0.85 µM.

For `COc1ccc(C(=O)SCCC(=O)[N-]c2c[n+](N3CCN(C)CC3)no2)cc1` [Example 139, N-(3-(4-Methoxybenzoylthio)propionyl)-3-(4-methylpiperazin-1-yl)sydnonimine], the half-inhibitory concentration (IC50) in assay [1] came out at 15.8 µM.

Regarding `C[C@H](CSC(=O)c1ccccc1)C(=O)[N-]c1c[n+](N2CCN(C)CC2)no1` [Example 2, N-((S)-3-(Benzoylthio)isobutyryl)-3-(4-methylpiperazin-1-yl)sydnonimine], in assay [1], the IC50 was found to be 15.8 µM.

Turning to `CCN1CCN([n+]2cc([N-]C(=O)[C@H](C)CSC(=O)c3ccccc3)on2)CC1` [Example 68, N-((S)-3-(Benzoylthio)isobutyryl)-3-(4-ethylpiperazin-1-yl)sydnonimine], in assay [1], the half-inhibitory concentration (IC50) is 10.5 µM.
